Series [1] is described as follows: Pharmacokinetics and bioavailability in male mice after a single dose. The class given is in vivo.
A further series has as its target ALK2 (ACVR1) (Homo sapiens (Human), UniProt Q04771). Nature of the series: In vitro kinase assay (33P ATP), ALK2. The format is biochemical. Conditions: 10 μM ATP; read-out: Inhibition of ALK2 (IC50 μM).
A further series deals with p-SMAD2. Briefly: p-SMAD2 inhibition, Western Blot Analysis in MDA-MB-231 cells treated with TGFβ. The format is cell-based. Conditions: Homo sapiens, TGFβ 2 ng/mL, samples run in triplicate; for inhibition at 0.1 µM: 0.1 μM compound, read-out: Average p-SMAD2 inhibition @ 0.1 μM (% Inh); for inhibition at 0.5 µM: 0.5 μM compound, read-out: Average p-SMAD2 inhibition @ 0.5 μM (% Inh). Background: Immunoblotting shows a protein as a band on a membrane.

Series [2] in a line: Plasma and brain concentrations at 0.5 and 1 h. The format is in vivo, mice. The conditions noted are these: PO.

The structures appear in SMILES notation. A value given as a limit tells only on which side of the number the result lay.

Data on 9 molecules can be found in patent US10501436B2, “Compounds and methods of use” (Medivation Technologies LLC, priority 2014, dated 2019).

ALK2 (ACVR1), sequence (Q04771 21-509): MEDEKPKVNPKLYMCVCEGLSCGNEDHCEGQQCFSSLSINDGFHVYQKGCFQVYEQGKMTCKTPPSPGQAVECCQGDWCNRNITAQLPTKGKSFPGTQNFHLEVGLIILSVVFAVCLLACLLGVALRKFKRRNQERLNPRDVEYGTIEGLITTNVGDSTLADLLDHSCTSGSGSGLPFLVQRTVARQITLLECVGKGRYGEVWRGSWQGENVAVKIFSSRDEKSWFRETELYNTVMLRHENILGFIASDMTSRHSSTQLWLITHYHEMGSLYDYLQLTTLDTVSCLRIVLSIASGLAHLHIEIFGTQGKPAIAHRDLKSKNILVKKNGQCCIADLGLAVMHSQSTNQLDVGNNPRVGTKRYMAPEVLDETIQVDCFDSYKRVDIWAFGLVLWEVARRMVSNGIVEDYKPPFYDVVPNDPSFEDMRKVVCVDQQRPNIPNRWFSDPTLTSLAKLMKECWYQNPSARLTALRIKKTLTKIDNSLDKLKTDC

With `C=C(C)c1cnc(-c2cc(Cl)ccc2F)cc1Nc1ccncc1C(=O)NCC(C)O` (single isomer, unassigned) [Compound 3a], in series [1] (Intravenous, 2 mg/kg), the AUClast amounted to 2.56 µM·h and the CL was 12.8 mL/min/kg. The AUClast in series [1] (Oral, 10 mg/kg) was 10.5 µM·h.
As to `COc1cnc(-c2cc(Cl)ccc2F)cc1Nc1ccncc1C(=O)NCC(C)O` (single isomer, unassigned) [Compound 13a], the IC50 at ALK2 (ACVR1) was over 100 µM.
`CC(C)c1cnc(-c2cc(Cl)ccc2F)cc1Nc1n[nH]cc1C(=O)NC[C@H](C)O` (single isomer, unassigned) [Compound 21a, 3-[[2-(5-chloro-2-fluoro-phenyl)-5-isopropyl-4-pyridyl]amino]-N-(2-hydroxypropyl)-1H-pyrazole-4-carboxamide]: in the series on p-SMAD2, the inhibition at 0.1 µM was 4.67% and the inhibition at 0.5 µM worked out at 7.67%.
With `C=C(C)c1c(Nc2ccncc2C(=O)NCC(C)O)cc(-c2cc(Cl)ccc2F)nc1N` (single isomer, unassigned) [Compound 23a], the AUClast in series [1] (Intravenous, 2 mg/kg) was determined as 1.11 µM·h; in series [1] (Oral, 10 mg/kg), 0.907 µM·h. This molecule came in with a CL in series [1] (Intravenous, 2 mg/kg) of 66 mL/min/kg.
Turning to `CC(C)c1cnc(-c2cc(Cl)ccc2F)cc1Nc1ccncc1CNC[C@H](C)O` [Compound 5a, (S)-1-((4-(2-(5-chloro-2-fluorophenyl)-5-isopropylpyridin-4-ylamino)pyridin-3-yl)methylamino)propan-2-ol], in the series on p-SMAD2, the inhibition at 0.1 µM amounted to 14.3% and the inhibition at 0.5 µM is 41.3%.
For the molecule `C=C(C)c1cnc(-c2cc(Cl)ccc2F)cc1Nc1ccncc1C(=O)N[C@H](C)CO` [Compound 7b, (2R)-4-[[2-(5-chloro-2-fluoro-phenyl)-5-isopropenyl-4-pyridyl]amino]-N-(2-hydroxy-1-methyl-ethyl)pyridine-3-carboxamide], the IC50 at ALK2 (ACVR1) was over 100 µM.
Take `C=Cc1cnc(-c2cc(Cl)ccc2F)cc1Nc1ccncc1C(=O)NC[C@H](C)O` [Compound 10a, (S)-4-(2-(5-chloro-2-fluorophenyl)-5-vinylpyridin-4-ylamino)-N-(2-hydroxypropyl) nicotinamide]: in the series on p-SMAD2, the inhibition at 0.5 µM was found to be 64.3%.
On to `CC(C)c1cnc(-c2cc(Cl)ccc2F)cc1Nc1ccncc1C(=O)NCCN` [Compound 19, N-(2-aminoethyl)-4-[[2-(5-chloro-2-fluoro-phenyl)-5-isopropyl-4-pyridyl]amino]pyridine-3-carboxamide], for which the “Brain Concentration (μM)” value in series [2] (0.5 h) and in series [2] (1 h) was “BLQ” in each case.
Turning to `C=C(C)c1cnc(-c2cc(Cl)ccc2F)cc1Nc1n[nH]cc1C(=O)NC[C@H](C)O` [Compound 20a, (S)-3-[[2-(5-chloro-2-fluoro-phenyl)-5-isopropenyl-4-pyridyl]amino]-N-(2-hydroxypropyl)-1H-pyrazole-4-carboxamide], in the series with p-SMAD2, the inhibition at 0.1 µM came to 0% and the inhibition at 0.5 µM was 3.67%.

By IC50 is commonly meant the concentration that gives 50% inhibition. Usually inhibition stands for how much of the control response was suppressed.
